According to ChEMBL document CHEMBL1201862, “PubChem BioAssay data set” (2004):
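How tested: cells in 96-well plates exposed to compound for 48 hours at five concentrations. GI50 = concentration required for 50% inhibition of growth.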 The source made the active and inactive calls. Cut-off read from the data, not from the text of the source: active = GI50 up to about 1.1 µM and inactive = higher.

What was measured:
Assay in all cases: NCI-60 cell line screen, 48 h
786-0 = system: 786-0
A549 = system: A549
ACHN = system: ACHN
CAKI-1 = system: CAKI-1
COLO 205 = system: COLO 205
DLD-1 = system: DLD-1
DMS-114 = system: DMS-114
DMS-273 = system: DMS-273
EKVX = system: EKVX
HCT-116 = system: HCT-116
HCT-15 = system: HCT-15
HOP-18 = system: HOP-18
HT-29 = system: HT-29
IGROV-1 = system: IGROV-1
K562 = system: K562
KM-20L2 = system: KM-20L2
KM12 = system: KM12
LXFL 529 = system: LXFL 529
M19-MEL = system: M19-MEL
MOLT-4 = system: MOLT-4
Malme-3M = system: Malme-3M
NCI-H226 = system: NCI-H226
NCI-H23 = system: NCI-H23
NCI-H460 = system: NCI-H460
NCI-H522 = system: NCI-H522
OVCAR-4 = system: OVCAR-4
OVCAR-5 = system: OVCAR-5
OVCAR-8 = system: OVCAR-8
RPMI-8226 = system: RPMI-8226
RXF 393 = system: RXF 393
SF-295 = system: SF-295
SF-539 = system: SF-539
SK-MEL-28 = system: SK-MEL-28
SK-MEL-2 = system: SK-MEL-2
SK-MEL-5 = system: SK-MEL-5
SK-OV-3 = system: SK-OV-3
SN12C = system: SN12C
SNB-19 = system: SNB-19
SNB-75 = system: SNB-75
SNB-78 = system: SNB-78
SR = system: SR
SW-620 = system: SW-620
TK-10 = system: TK-10
U-251 = system: U-251
UACC-257 = system: UACC-257
UACC-62 = system: UACC-62
UO-31 = system: UO-31
XF498 = system: XF498
A498 = system: A498
CCRF-CEM = system: CCRF-CEM
HCC 2998 = system: HCC 2998
HL-60 = system: HL-60
HOP-62 = system: HOP-62
HOP-92 = system: HOP-92
LOX IMVI = system: LOX IMVI
M14 = system: M14
OVCAR-3 = system: OVCAR-3
SF-268 = system: SF-268

CN1CCCC2[C@@H]3CCC4c5nonc5CC[C@]4(C)C3CC[C@@]21C (stereo partly drawn)
GI50 (786-0): > 100 µM (inactive)
GI50 (A549): > 100 µM (inactive)
GI50 (ACHN): > 100 µM (inactive)
GI50 (CAKI-1): > 100 µM (inactive)
GI50 (COLO 205): > 100 µM (inactive)
GI50 (DLD-1): 51.1 µM (inactive)
GI50 (DMS-114): > 100 µM (inactive)
GI50 (DMS-273): 93.3 µM (inactive)
GI50 (EKVX): > 100 µM (inactive)
GI50 (HCT-116): > 100 µM (inactive)
GI50 (HCT-15): 57.7 µM
GI50 (HOP-18): > 100 µM (inactive)
GI50 (HT-29): 38.1 µM (inactive)
GI50 (IGROV-1): > 100 µM (inactive)
GI50 (K562): 67.8 µM (inactive)
GI50 (KM-20L2): 23.3 µM (inactive)
GI50 (KM12): > 100 µM (inactive)
GI50 (LXFL 529): 84.7 µM (inactive)
GI50 (M19-MEL): 63.8 µM (inactive)
GI50 (MOLT-4): > 100 µM (inactive)
GI50 (Malme-3M): > 100 µM (inactive)
GI50 (NCI-H226): > 100 µM (inactive)
GI50 (NCI-H23): > 100 µM (inactive)
GI50 (NCI-H460): > 100 µM (inactive)
GI50 (NCI-H522): > 100 µM (inactive)
GI50 (OVCAR-4): > 100 µM (inactive)
GI50 (OVCAR-5): > 100 µM (inactive)
GI50 (OVCAR-8): > 100 µM (inactive)
GI50 (RPMI-8226): > 100 µM (inactive)
GI50 (RXF 393): 50.1 µM (inactive)
GI50 (SF-295): 43.2 µM (inactive)
GI50 (SF-539): > 100 µM (inactive)
GI50 (SK-MEL-28): 37.6 µM (inactive)
GI50 (SK-MEL-2): > 100 µM (inactive)
GI50 (SK-MEL-5): 42.5 µM (inactive)
GI50 (SK-OV-3): 17.9 µM (inactive)
GI50 (SN12C): 98.6 µM (inactive)
GI50 (SNB-19): > 100 µM (inactive)
GI50 (SNB-75): 23.4 µM (inactive)
GI50 (SNB-78): > 100 µM (inactive)
GI50 (SR): > 100 µM (inactive)
GI50 (SW-620): > 100 µM (inactive)
GI50 (TK-10): > 100 µM (inactive)
GI50 (U-251): > 100 µM (inactive)
GI50 (UACC-257): 35 µM (inactive)
GI50 (UACC-62): 24.7 µM (inactive)
GI50 (UO-31): > 100 µM (inactive)
GI50 (XF498): 24.4 µM (inactive)

CCCC1(CC(=O)O)OCCc2c1[nH]c1ccccc21 (stereo not drawn) [PRODOLIC ACID]
GI50 (786-0): > 100 µM (inactive)
GI50 (A498): > 100 µM (inactive)
GI50 (A549): > 100 µM (inactive)
GI50 (ACHN): > 100 µM (inactive)
GI50 (CAKI-1): > 100 µM (inactive)
GI50 (CCRF-CEM): > 100 µM (inactive)
GI50 (COLO 205): > 100 µM (inactive)
GI50 (DLD-1): > 100 µM (inactive)
GI50 (DMS-114): > 100 µM (inactive)
GI50 (DMS-273): > 100 µM (inactive)
GI50 (EKVX): > 100 µM (inactive)
GI50 (HCC 2998): > 100 µM (inactive)
GI50 (HCT-15): > 100 µM
GI50 (HL-60): > 100 µM (inactive)
GI50 (HOP-18): > 100 µM (inactive)
GI50 (HOP-62): > 100 µM (inactive)
GI50 (HOP-92): > 100 µM (inactive)
GI50 (IGROV-1): > 100 µM (inactive)
GI50 (K562): > 100 µM (inactive)
GI50 (KM-20L2): > 100 µM (inactive)
GI50 (KM12): > 100 µM (inactive)
GI50 (LOX IMVI): > 100 µM (inactive)
GI50 (LXFL 529): > 100 µM (inactive)
GI50 (M14): > 100 µM (inactive)
GI50 (M19-MEL): > 100 µM (inactive)
GI50 (MOLT-4): > 100 µM (inactive)
GI50 (Malme-3M): > 100 µM (inactive)
GI50 (NCI-H226): > 100 µM (inactive)
GI50 (NCI-H23): > 100 µM (inactive)
GI50 (OVCAR-3): > 100 µM (inactive)
GI50 (OVCAR-4): > 100 µM (inactive)
GI50 (OVCAR-5): > 100 µM (inactive)
GI50 (OVCAR-8): > 100 µM (inactive)
GI50 (RPMI-8226): > 100 µM (inactive)
GI50 (RXF 393): > 100 µM (inactive)
GI50 (SF-268): > 100 µM (inactive)
GI50 (SF-295): > 100 µM (inactive)
GI50 (SF-539): > 100 µM (inactive)
GI50 (SK-MEL-28): > 100 µM (inactive)
GI50 (SK-MEL-2): > 100 µM (inactive)
GI50 (SK-MEL-5): > 100 µM (inactive)
GI50 (SK-OV-3): > 100 µM (inactive)
GI50 (SN12C): > 100 µM (inactive)
GI50 (SNB-19): > 100 µM (inactive)
GI50 (SNB-75): 69.3 µM (inactive)
GI50 (SNB-78): > 100 µM (inactive)
GI50 (SW-620): > 100 µM (inactive)
GI50 (TK-10): > 100 µM (inactive)
GI50 (U-251): > 100 µM (inactive)
GI50 (UACC-257): > 100 µM (inactive)
GI50 (UACC-62): > 100 µM (inactive)
GI50 (UO-31): > 100 µM (inactive)
GI50 (XF498): > 100 µM (inactive)

CC(C)=CC1CC(=[N+]=[N-])C(=O)C1(C)C (stereo not drawn)
GI50 (786-0): > 100 µM (inactive)
GI50 (A498): > 100 µM (inactive)
GI50 (A549): > 100 µM (inactive)
GI50 (ACHN): > 100 µM (inactive)
GI50 (CAKI-1): > 100 µM (inactive)
GI50 (CCRF-CEM): > 53 µM (inactive)
GI50 (COLO 205): > 100 µM (inactive)
GI50 (DLD-1): > 100 µM (inactive)
GI50 (DMS-114): > 58.3 µM (inactive)
GI50 (EKVX): > 100 µM (inactive)
GI50 (HCC 2998): > 100 µM (inactive)
GI50 (HCT-116): > 100 µM (inactive)
GI50 (HCT-15): 86.5 µM
GI50 (HL-60): > 100 µM (inactive)
GI50 (HOP-18): > 100 µM (inactive)
GI50 (HOP-62): > 100 µM (inactive)
GI50 (HOP-92): > 80.7 µM (inactive)
GI50 (HT-29): > 31.6 µM (inactive)
GI50 (IGROV-1): > 100 µM (inactive)
GI50 (K562): > 71.1 µM (inactive)
GI50 (KM-20L2): > 100 µM (inactive)
GI50 (KM12): > 100 µM (inactive)
GI50 (LOX IMVI): > 75.7 µM (inactive)
GI50 (LXFL 529): > 100 µM (inactive)
GI50 (M14): > 100 µM (inactive)
GI50 (M19-MEL): > 100 µM (inactive)
GI50 (MOLT-4): > 100 µM (inactive)
GI50 (Malme-3M): > 100 µM (inactive)
GI50 (NCI-H226): > 100 µM (inactive)
GI50 (NCI-H23): > 100 µM (inactive)
GI50 (NCI-H460): 99.5 µM (inactive)
GI50 (NCI-H522): > 80.7 µM (inactive)
GI50 (OVCAR-3): > 100 µM (inactive)
GI50 (OVCAR-4): > 100 µM (inactive)
GI50 (OVCAR-5): > 100 µM (inactive)
GI50 (OVCAR-8): > 100 µM (inactive)
GI50 (RPMI-8226): > 51.8 µM (inactive)
GI50 (RXF 393): > 31.6 µM (inactive)
GI50 (SF-268): > 100 µM (inactive)
GI50 (SF-295): > 100 µM (inactive)
GI50 (SF-539): > 100 µM (inactive)
GI50 (SK-MEL-28): > 100 µM (inactive)
GI50 (SK-MEL-2): > 100 µM (inactive)
GI50 (SK-MEL-5): > 100 µM (inactive)
GI50 (SK-OV-3): > 100 µM (inactive)
GI50 (SN12C): > 100 µM (inactive)
GI50 (SNB-19): > 100 µM (inactive)
GI50 (SNB-75): > 46.7 µM (inactive)
GI50 (SNB-78): > 100 µM (inactive)
GI50 (SR): 23.1 µM (inactive)
GI50 (SW-620): > 100 µM (inactive)
GI50 (TK-10): > 100 µM (inactive)
GI50 (U-251): > 100 µM (inactive)
GI50 (UACC-257): > 100 µM (inactive)
GI50 (UACC-62): > 100 µM (inactive)
GI50 (UO-31): > 59 µM (inactive)
GI50 (XF498): > 100 µM (inactive)
